#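 Growth conditions: 96-well plates. Treatment: test compound, 48 hours, 5 concentrations. Analysis: linear interpolation between bracketing concentrations; unreached endpoints set to highest concentration. The concentration for 50% growth inhibition is given as GI50. TGI marks complete inhibition of growth.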
# Columns and labels:
# Assay in all cases: inhibition of tumour cell growth, NCI panel, 48 h
# LOX IMVI melanoma = system: LOX IMVI melanoma
# M14 melanoma = system: M14 melanoma
# MDA-MB-231 breast = system: MDA-MB-231 breast
# UO-31 renal = system: UO-31 renal
# OVCAR-4 ovarian = system: OVCAR-4 ovarian
# 786-0 renal = system: 786-0 renal
# SNB-19 CNS = system: SNB-19 CNS
# UACC-257 melanoma = system: UACC-257 melanoma
# SW-620 colon = system: SW-620 colon
# NCI-H522 lung = system: NCI-H522 lung
SMILES,GI50 (LOX IMVI melanoma) [µM],TGI (LOX IMVI melanoma) [µM],GI50 (M14 melanoma) [µM],TGI (M14 melanoma) [µM],GI50 (MDA-MB-231 breast) [µM],TGI (MDA-MB-231 breast) [µM],GI50 (UO-31 renal) [µM],TGI (UO-31 renal) [µM],GI50 (OVCAR-4 ovarian) [µM],TGI (OVCAR-4 ovarian) [µM],GI50 (786-0 renal) [µM],TGI (786-0 renal) [µM],GI50 (SNB-19 CNS) [µM],TGI (SNB-19 CNS) [µM],GI50 (UACC-257 melanoma) [µM],TGI (UACC-257 melanoma) [µM],GI50 (SW-620 colon) [µM],TGI (SW-620 colon) [µM],GI50 (NCI-H522 lung) [µM],TGI (NCI-H522 lung) [µM]
CN(C)c1ccc(/C=N/S(=O)(=O)c2ccc(-n3c(-c4ccccc4)nc4c(Br)cc(Br)cc4c3=O)cc2)cc1,46.1,> 100,31.1,> 93.5,44,> 100,32.6,> 100,30.3,97.3,55.7,> 100,51.2,> 100,44.6,> 100,46.2,> 100,32.2,> 97
Cc1nc2ccccc2nc1N=Nc1ccccc1,23.3,> 100,17.7,44.8,16.2,69.1,7.99,> 100,16.5,> 100,26.9,> 100,50.3,> 100,25.2,73.4,–,–,20.4,63.1
COC(=O)C(C(=O)OC)C(Br)C(Br)C(Br)c1ccccc1 (stereo unspecified),1.5,3.34,12.9,27.5,13.2,26.8,1.74,3.42,4.33,17.8,11.9,25.3,–,–,2.34,11,3.29,11.4,1.69,3.33
CC(=O)OC1=CC2(OC(C)=O)CC(C)(C)C1C1C(=O)C=CC(=O)C12 (stereo unspecified),–,> 56.1,–,> 100,–,> 100,–,> 100,–,> 100,–,> 81.7,–,> 100,–,> 100,–,> 100,–,> 52.4
Cn1cc(C2=C(Nc3ccccc3)C(=O)NC2=O)c2ccccc21,> 25,> 25,> 25,> 25,> 25,> 25,> 19.5,> 25,> 21.8,> 25,> 25,> 25,> 25,> 25,> 25,> 25,> 25,> 25,24.6,> 25
C[C@@H](CO)NC(=O)c1cc(-c2ccc(Cl)cc2)nn(-c2cnn(C)c2)c1=O,14.6,37.2,31.1,> 100,51.5,> 100,7.79,57.4,45.9,> 100,23.9,> 100,26.4,> 100,30.6,> 100,22.9,> 100,14.4,35.7
CC(=O)Nc1n[n+]([O-])c2cc(C)ccc2[n+]1[O-],–,11.5,–,8.3,–,23.4,–,17.2,–,18,–,17.5,–,23.3,–,18.7,–,17.5,–,5.53
COc1cnc2c(c1)C(=O)c1c-2n(CCCN2CCC(O)CC2)c(=O)c2cc(Cl)ccc12,0.0758,1.46,0.0914,1.86,1.51,3.12,0.271,1.59,1.34,3.08,0.28,1.36,0.243,3.46,12.2,26.2,0.253,2.62,0.11,2.02
CCSC[C@@H]1C[C@](O)(c2ccc(F)cc2)[C@@H](c2ccc(F)cc2)O1,17.3,32.2,15.8,32.4,15.3,30.1,17,32.9,16.3,32.5,16.4,31.1,16.6,31.1,16.1,32.7,16.7,31.4,18.4,49.3
CCN1C(=NCCO)NS(=O)(=O)c2ccccc21,–,> 100,–,> 100,–,> 100,–,> 100,–,> 100,–,> 100,–,> 100,–,> 100,–,> 100,–,> 100
CC1(C)O[C@@H]2C[C@H]3[C@@H]4C[C@H](F)C5=CC(=O)C=C[C@]5(C)[C@@]4(F)[C@@H](O)C[C@]3(C)[C@]2(C(=O)CO)O1,–,> 100,–,> 100,–,> 100,–,> 100,–,> 100,–,> 100,–,> 100,–,> 100,–,> 100,–,> 100
NC1(Cc2ccc(Cl)cc2)CCN(c2ncnc3[nH]ccc23)CC1,4.43,17.7,8.58,23.6,6.9,26.9,1.54,13,17.6,60.5,2.68,17,5.33,21.3,13.1,26.5,4.59,20.4,12.6,27.7
O=Cc1ccc(-c2ccc(-c3nc4ccccc4s3)cc2)s1,68.1,> 100,54.6,> 100,17.6,78.2,42.7,> 100,> 100,> 100,51.7,> 100,> 100,> 100,> 100,> 100,56.4,> 100,69.1,> 100
Cc1cc(O)c(C2=NN(c3ccc(S(N)(=O)=O)cc3)C(/C=C/c3ccccc3)C2)cc1Cl (stereo unspecified),3.94,16.2,6.16,19.3,4.56,16.3,15.2,34.9,3.74,18.9,4.09,12.5,7.84,19.9,14.5,45.7,11.7,31.3,4.62,19.4

# Reference: PubChem BioAssay (NCI)
